Assays:
physchem = assay type: physicochemical; conditions: for remaining at 1 h, 70 µM / remaining at 2 h, 70 µM / remaining at 4 h, 70 µM / remaining at 18 h, 70 µM / remaining at 24 h, 70 µM: aqueous solution; for Remaining ratio: 0 min, 70 uM
Experimental: 2-O-α-D-Glucosyl-L-ascorbic acid was compared respectively to the 6-O-α-D-glucosyl-L-ascorbic acid disclosed in Japanese Patent Publication No. 38,158/73, and L-ascorbic acid for their stability in aqueous solution. More particularly, each sample was adjusted to a concentration of 70 micromoles and to pH 7.0 or 2.0, placed in a cuvette, and measured for its absorbance at either 260 nm and pH 7.0 or at 245 nm and pH 2.0 while keeping the solution at 45° C. The remaining ratio (%) was calculated with the absorbance.

Dissociation constant = assay type: physicochemical
From the text: (10) Dissociation constant The pKa is 3.0.

[1] = Physical properties: hygroscopicity, deliquescence, loss on drying; assay type: physicochemical; conditions: for Hygroscopicity and deliquescence: ambient conditions
Experimental: (12) Physical properties and color: Colorless and transparent crystal. […] Loss on drying at 130° C. for 2 hours is less than 0.5 w/w %. FIG. 5 is the microscopic view of a crystal growing in a supersaturated solution.

dd mice = assay: Acute toxicity, oral; assay type: in vivo
From the text: A crystalline 2-O-α-D-glucopyranosyl-L-ascorbic acid specimen, prepared by the method in Experiment 1, was orally administered to 7 week-old dd mice for acute toxicity test. As the result, no mouse died when administered with up to […] of the specimen, and higher dose was difficult.

Solubility in water = assay type: physicochemical; conditions: 25° C.
Solubility in solvents = assay type: physicochemical
[2] = Coloring reaction: direct reducing activity; assay type: biochemical; conditions: 2,6-dichlorophenolindophenol
α-glucosidase = assay: Hydrolysis by α-glucosidase; assay type: biochemical; conditions: products at molar ratio 1:1
Experimental: (§1) (14) Structual element: Hydrolyzable by α-glucosidase or by treatment with 1N hydrochloric acid at 100° C. for 5 minutes to form L-ascorbic acid and D-glucose at a molar ratio of 1:1.

[3] = Hydrolysis with 1N hydrochloric acid; assay type: physicochemical; conditions: 100° C., 5 minutes, products at molar ratio 1:1
Experimental: as §1

remaining at 1 h, 70 µM (physchem; pH 2) | remaining at 2 h, 70 µM (physchem; pH 2) | remaining at 4 h, 70 µM (physchem; pH 2) | remaining at 18 h, 70 µM (physchem; pH 2) | remaining at 24 h, 70 µM (physchem; pH 2) | remaining at 1 h, 70 µM (physchem; pH 7) | remaining at 2 h, 70 µM (physchem; pH 7) | remaining at 4 h, 70 µM (physchem; pH 7) | remaining at 18 h, 70 µM (physchem; pH 7) | remaining at 24 h, 70 µM (physchem; pH 7) | Remaining ratio (physchem; pH 2) | Remaining ratio (physchem; pH 7) | Compound | Hygroscopicity and deliquescence [1] | further results
99% | 98% | 90% | 25% | 12% | 88% | 72% | 43% | 7% | 4% | 100% | 100% | O=C1O[C@H]([C@@H](O)CO[C@H]2O[C@H](CO)[C@@H](O)[C@H](O)[C@H]2O)C(O)=C1O [6GAsA, 6-O-α-D-glucosyl-L-ascorbic acid] | – | –
98% | 95% | 88% | 12% | 4% | 80% | 61% | 32% | 1% | 1% | 100% | 100% | O=C1O[C@H]([C@@H](O)CO)C(O)=C1O [AsA, L-ascorbic acid] | – | –
– | – | – | – | – | – | – | – | – | – | – | – | O=C1O[C@H]([C@@H](O)CO)C(O)=C1O[C@H]1O[C@H](CO)[C@@H](O)[C@H](O)[C@H]1O [amorphous 2-O-α-D-glucopyranosyl-L-ascorbic acid] [reference compound] | strongly hygroscopic | –

Compound | remaining at 1 h, 70 µM (physchem; pH 2) | remaining at 2 h, 70 µM (physchem; pH 2) | remaining at 4 h, 70 µM (physchem; pH 2) | remaining at 18 h, 70 µM (physchem; pH 2) | remaining at 24 h, 70 µM (physchem; pH 2) | remaining at 1 h, 70 µM (physchem; pH 7) | remaining at 2 h, 70 µM (physchem; pH 7) | remaining at 4 h, 70 µM (physchem; pH 7) | remaining at 18 h, 70 µM (physchem; pH 7) | remaining at 24 h, 70 µM (physchem; pH 7) | Remaining ratio (physchem; pH 2) | Remaining ratio (physchem; pH 7) | Hygroscopicity and deliquescence [1] | further results
O=C1O[C@H]([C@@H](O)CO)C(O)=C1O[C@H]1O[C@H](CO)[C@@H](O)[C@H](O)[C@H]1O [2-O-α-D-glucopyranosyl-L-ascorbic acid] | 100% | 100% | 100% | 100% | 100% | 100% | 100% | 100% | 100% | 100% | – | – | – | pKa (Dissociation constant): 3
O=C1O[C@H]([C@@H](O)CO)C(O)=C1O[C@H]1O[C@H](CO)[C@@H](O)[C@H](O)[C@H]1O [crystalline 2-O-α-D-glucopyranosyl-L-ascorbic acid] | – | – | – | – | – | – | – | – | – | – | 100% | 100% | Free of hygroscopicity and deliquescence | Dose up to which no mouse died (dd mice; 7 week-old dd mice, higher dose was difficult): up to 5 g; Mortality (dd mice; 7 week-old dd mice, up to 5 g of the specimen): no mouse died; Toxicity (dd mice; dd mice, overall conclusion): extremely low in toxicity; Solubility (Solubility in water): One hundred and twenty-five; Solubility in solvents (Solubility in solvents; 0.1N acetic acid): Readily soluble; Solubility in solvents (Solubility in solvents; 0.1N sodium hydroxide): Readily soluble; Solubility in solvents (Solubility in solvents; benzene): insoluble; Solubility in solvents (Solubility in solvents; chloroform): insoluble; Solubility in solvents (Solubility in solvents; ethanol): soluble; Solubility in solvents (Solubility in solvents; ether): insoluble; Solubility in solvents (Solubility in solvents; ethyl acetate): insoluble; Solubility in solvents (Solubility in solvents; methanol): soluble; Solubility in solvents (Solubility in solvents; water): Readily soluble; Loss on drying ([1]; 130° C., 2 hours): less than 0.5 w/w %; Direct reducing activity [2]: no direct reducing activity; Hydrolysis to L-ascorbic acid and D-glucose (α-glucosidase): Hydrolyzable; Hydrolysis to L-ascorbic acid and D-glucose [3]: Hydrolyzable

Source: patent publication US5084563A, “Crystalline 2-O-α-D-glucopyranosyl-L-ascorbic acid, and its preparation and uses” (priority 1989, dated 1992)
